Test results published in BindingDB's records for patent US12391671 (Dana-Farber Cancer Institute, 2025).

Columns and labels:
Assay in all cases: HTRF-Based EGFR Biochemical Assay
[1] = target: Epidermal growth factor receptor [L858R] (Homo sapiens, UniProt P00533, L858R)
Experimental: (§1) EGFR biochemical activity measurements were carried out using the homogeneous time-resolved fluorescence (HTRF) assay (Cisbio), inhibitors and DMSO normalizations were first dispensed to empty black low-volume 384-well plates (Corning) with 0300 digital liquid dispenser (HP). All reactions were carried out at room temperature and solutions were added to plates with a Multidrop Combi Reagent Dispenser (ThermoFisher). The reaction mixture (10 μL final volume) contained 1 μM tyrosine kinase peptide-biotin substrate and mutant EGFR in a reaction buffer (50 mM HEPES pH 7.0, 5 mM MgCl2, 1 mM MnCl2, 0.01% BSA, 2 mM TCEP, 0.1 mM NaVO4). Enzyme concentrations were adjusted to accommodate varying kinase activities (L858R 0.1 nM, L858R/T790M 0.02 nM). Enzyme reaction solution (2× concentrations, 5 μL) was added to 384-well plates containing compounds and incubated for 30 mins. Enzyme reactions were initiated with the addition of 5 μL of ATP to a final concentration of 100 μM and reacted for 20 mins. Reactions were quenched with the addition of 10 μL of phospho-tyrosine antibody-Europium(III) cryptate (1-to-180 volume ratio) and Streptavidin-XL665 (46.7 nM) in EDTA-containing detection buffer, then incubated at room temperature for 1 hour, and read with a PHERAstar plate reader (excitation=337 nm, emission=620 nm and 665 nm).

[2] = target: Epidermal growth factor receptor [T790M,L858R] (Homo sapiens, UniProt P00533, T790M/L858R)
Experimental: as §1

[3] = target: Epidermal growth factor receptor [T790M,L858R] (Homo sapiens, UniProt P00533, L858R/T790M)
Experimental: as §1

Sequence of Epidermal growth factor receptor [L858R] (P00533 25-1210 L858R limits assumed): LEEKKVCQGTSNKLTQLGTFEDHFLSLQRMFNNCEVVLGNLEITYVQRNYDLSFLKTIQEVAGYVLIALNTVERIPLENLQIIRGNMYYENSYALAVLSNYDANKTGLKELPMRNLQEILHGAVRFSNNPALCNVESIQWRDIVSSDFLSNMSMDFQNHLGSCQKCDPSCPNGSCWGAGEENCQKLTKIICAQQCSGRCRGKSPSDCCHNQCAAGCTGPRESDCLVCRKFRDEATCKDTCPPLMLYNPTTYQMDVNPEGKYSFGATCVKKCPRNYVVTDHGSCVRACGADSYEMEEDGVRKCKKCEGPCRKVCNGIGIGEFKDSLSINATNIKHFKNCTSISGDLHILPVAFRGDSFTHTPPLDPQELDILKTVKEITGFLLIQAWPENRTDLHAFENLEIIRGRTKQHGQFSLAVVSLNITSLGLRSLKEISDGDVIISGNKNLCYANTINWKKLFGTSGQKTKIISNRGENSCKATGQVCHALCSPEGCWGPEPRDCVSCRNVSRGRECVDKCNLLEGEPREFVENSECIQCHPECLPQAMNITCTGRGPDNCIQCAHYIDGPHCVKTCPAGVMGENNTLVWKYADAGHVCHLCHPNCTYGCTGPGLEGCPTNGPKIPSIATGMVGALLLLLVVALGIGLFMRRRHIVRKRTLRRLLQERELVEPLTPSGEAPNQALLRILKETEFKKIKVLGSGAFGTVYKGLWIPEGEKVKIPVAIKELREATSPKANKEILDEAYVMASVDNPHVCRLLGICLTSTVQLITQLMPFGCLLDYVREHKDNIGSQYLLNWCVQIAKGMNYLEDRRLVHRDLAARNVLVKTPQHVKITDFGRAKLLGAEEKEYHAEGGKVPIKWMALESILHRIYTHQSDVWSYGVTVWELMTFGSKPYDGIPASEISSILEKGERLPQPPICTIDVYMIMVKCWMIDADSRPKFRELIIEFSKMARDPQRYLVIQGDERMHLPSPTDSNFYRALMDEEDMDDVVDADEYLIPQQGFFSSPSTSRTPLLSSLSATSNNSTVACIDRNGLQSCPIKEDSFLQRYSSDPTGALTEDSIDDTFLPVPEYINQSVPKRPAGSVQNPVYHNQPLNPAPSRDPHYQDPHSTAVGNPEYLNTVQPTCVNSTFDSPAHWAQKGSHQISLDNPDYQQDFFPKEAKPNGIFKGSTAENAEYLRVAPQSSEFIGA
Sequence of Epidermal growth factor receptor [T790M,L858R] (Homo sapiens, UniProt P00533, L858R/T790M) (P00533 25-1210 T790M/L858R limits assumed): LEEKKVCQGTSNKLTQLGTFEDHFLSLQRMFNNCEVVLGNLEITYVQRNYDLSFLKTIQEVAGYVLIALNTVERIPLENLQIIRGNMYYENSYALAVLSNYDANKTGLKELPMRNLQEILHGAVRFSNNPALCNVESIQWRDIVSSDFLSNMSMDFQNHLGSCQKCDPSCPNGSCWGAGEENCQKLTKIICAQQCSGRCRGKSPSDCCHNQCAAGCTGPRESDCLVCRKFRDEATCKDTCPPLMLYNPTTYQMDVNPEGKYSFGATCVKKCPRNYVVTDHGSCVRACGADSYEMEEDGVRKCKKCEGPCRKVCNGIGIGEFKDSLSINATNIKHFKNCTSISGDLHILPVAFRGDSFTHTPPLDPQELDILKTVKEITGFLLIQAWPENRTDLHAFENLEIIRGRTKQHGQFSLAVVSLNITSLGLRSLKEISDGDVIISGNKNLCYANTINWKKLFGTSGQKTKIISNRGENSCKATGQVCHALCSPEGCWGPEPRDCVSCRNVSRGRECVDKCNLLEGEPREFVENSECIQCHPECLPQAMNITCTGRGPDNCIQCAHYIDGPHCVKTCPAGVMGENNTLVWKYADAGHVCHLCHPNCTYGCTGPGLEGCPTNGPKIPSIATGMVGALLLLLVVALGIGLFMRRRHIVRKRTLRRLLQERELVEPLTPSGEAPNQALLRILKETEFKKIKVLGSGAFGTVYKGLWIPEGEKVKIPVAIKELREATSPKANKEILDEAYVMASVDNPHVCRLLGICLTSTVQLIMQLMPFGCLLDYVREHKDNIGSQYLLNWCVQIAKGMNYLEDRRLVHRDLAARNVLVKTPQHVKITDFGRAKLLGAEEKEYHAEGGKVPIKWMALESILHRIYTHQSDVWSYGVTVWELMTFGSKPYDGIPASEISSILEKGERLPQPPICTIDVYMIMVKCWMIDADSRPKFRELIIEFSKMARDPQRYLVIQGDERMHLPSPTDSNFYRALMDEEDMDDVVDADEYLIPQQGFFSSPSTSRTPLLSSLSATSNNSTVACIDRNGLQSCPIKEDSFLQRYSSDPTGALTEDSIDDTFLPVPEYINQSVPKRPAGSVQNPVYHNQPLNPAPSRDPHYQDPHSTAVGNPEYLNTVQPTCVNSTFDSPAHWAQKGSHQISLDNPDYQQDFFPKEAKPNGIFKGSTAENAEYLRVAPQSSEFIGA
Sequence of Epidermal growth factor receptor [T790M,L858R] (Homo sapiens, UniProt P00533, T790M/L858R) (P00533 25-1210 T790M/L858R limits assumed): as above

`CC1=CNC([C@H](c2cc(F)ccc2O)N2CC3=CC=C(c4ccc(C5CCN(C)CC5)cc4)C(F)C3C2=O)N1` (stereo partly drawn) [US12391671, Compound 094] showed an IC50 [1] of 1 nM and an IC50 [2] of 2 nM.

`CN1CCC(c2ccc(-c3ccc4c(c3)C(=O)N(C(c3nc5ccccc5[nH]3)c3cccc(Cl)c3O)C4)cc2)CC1` (stereo not drawn) [US12391671, Compound 043] gave an IC50 [3] of 73 nM and an IC50 [1] of 49 nM.

In the case of `CN1CCC(c2ccc(-c3ccc4c(c3F)C(=O)N(C(c3nc5ccccc5[nH]3)c3cc(F)ccc3O)C4)cc2)CC1` (stereo not drawn) [US12391671, Compound 032], the IC50 [3] is reported as 0.3 nM and the IC50 [1] is reported as 2 nM.

`O=C1c2cc(-c3ccc(N4CCNCC4)cc3)ccc2CN1C(c1nc2ccccc2[nH]1)c1cc(F)ccc1O` (stereo not drawn) [US12391671, Compound 021] gave an IC50 [3] of 2 nM and an IC50 [1] of 6 nM.
